The source of these data is the supplement of paper PMC10307832.

Common to all, as to assay: relative viability (nuclei count vs DMSO), 5 days (fraction); higher = more cells survive
Compound in the assay “Quizartinib + OSI-027”: CC(C)(C)c1cc(NC(=O)Nc2ccc(-c3cn4c(n3)sc3cc(OCCN5CCOCC5)ccc34)cc2)no1 [Quizartinib] + COc1cccc2cc(-c3nc([C@H]4CC[C@H](C(=O)O)CC4)n4ncnc(N)c34)[nH]c12 [OSI-027] (partner 0.5 µM)
Put shortly:
(§1)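 Lung cancer cell lines were seeded in 1536-well plates and dosed by pin tool the next day, with either a single drug or a fixed anchor-drug dose combined with five library-drug doses (not always all listed) spaced in √10 steps. Five days later, one step fixed the cells and stained their nuclei (final 0.05% Triton X-100, 1% formaldehyde, 1 ug/ml Hoechst), and nuclei were counted on 4× images. Relative viability is the nuclei count in treated wells divided by the count in vehicle wells, and each value is the median of duplicate plates.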

Compound in the assay “Quizartinib + Tozasertib”: CC(C)(C)c1cc(NC(=O)Nc2ccc(-c3cn4c(n3)sc3cc(OCCN5CCOCC5)ccc34)cc2)no1 [Quizartinib] + Cc1cc(Nc2cc(N3CCN(C)CC3)nc(Sc3ccc(NC(=O)C4CC4)cc3)n2)n[nH]1 [Tozasertib] (partner 0.1 µM)
In a few lines:
as §1

Compound in the assay “Quizartinib + AZD7762”: CC(C)(C)c1cc(NC(=O)Nc2ccc(-c3cn4c(n3)sc3cc(OCCN5CCOCC5)ccc34)cc2)no1 [Quizartinib] + NC(=O)Nc1cc(-c2cccc(F)c2)sc1C(=O)N[C@H]1CCCNC1 [AZD7762] (partner 0.2 µM)
In a few lines: as §1

Compound in the assay “YM155 + Alpelisib”: COCC[n+]1c2c(n(Cc3cnccn3)c1C)C(=O)c1ccccc1C2=O [YM155] + Cc1nc(NC(=O)N2CCC[C@H]2C(N)=O)sc1-c1ccnc(C(C)(C)C(F)(F)F)c1 [Alpelisib] (partner 2 µM)
In a few lines: as §1

For the cell line NCI-H1623, the relative viability with Quizartinib + OSI-027 (first compound 0.001 µM) came out at 0.457; with Quizartinib + OSI-027 (first compound 0.003162 µM), 0.419; in the assay with Quizartinib + OSI-027 (first compound 0.01 µM), 0.41; in the assay with Quizartinib + OSI-027 (first compound 0.03162 µM) it was 0.383; with Quizartinib + OSI-027 (first compound 0.1 µM) it was 0.412; with Quizartinib + Tozasertib (first compound 0.001 µM), 0.392. Also, the relative viability was 0.469 in the assay with Quizartinib + Tozasertib (first compound 0.003162 µM), 0.449 with Quizartinib + Tozasertib (first compound 0.01 µM), 0.441 with Quizartinib + Tozasertib (first compound 0.03162 µM) and 0.511 with Quizartinib + Tozasertib (first compound 0.1 µM).

In the case of NCI-H1650, the relative viability turned out to be 0.414 with Quizartinib + OSI-027 (first compound 0.001 µM); 0.738 with Quizartinib + OSI-027 (first compound 0.003162 µM); 0.598 with Quizartinib + OSI-027 (first compound 0.01 µM); 0.494 with Quizartinib + OSI-027 (first compound 0.1 µM); 0.42 with Quizartinib + Tozasertib (first compound 0.001 µM); 0.366 with Quizartinib + Tozasertib (first compound 0.003162 µM). Moreover, the relative viability amounted to 0.369 with Quizartinib + Tozasertib (first compound 0.01 µM) and 0.238 with Quizartinib + Tozasertib (first compound 0.1 µM).

With NCI-H1703, the relative viability in the assay with Quizartinib + AZD7762 (first compound 0.001 µM) amounted to 0.155; with Quizartinib + AZD7762 (first compound 0.003162 µM) it was 0.143; with Quizartinib + AZD7762 (first compound 0.1 µM) it was 0.134; in the assay with YM155 + Alpelisib (first compound 0.002 µM), 0.292; in the assay with YM155 + Alpelisib (first compound 0.006325 µM) it was 0.394; in the assay with YM155 + Alpelisib (first compound 0.02 µM) it was 0.373. In addition, the relative viability with YM155 + Alpelisib (first compound 0.06325 µM) amounted to 0.339.

NCI-H1792: the relative viability with Quizartinib + AZD7762 (first compound 0.001 µM) was 0.547; with Quizartinib + AZD7762 (first compound 0.003162 µM) it was 0.654; with Quizartinib + AZD7762 (first compound 0.01 µM), 0.691; with Quizartinib + AZD7762 (first compound 0.03162 µM), 0.496; with Quizartinib + AZD7762 (first compound 0.1 µM) it was 0.604; with Quizartinib + OSI-027 (first compound 0.003162 µM), 0.73. For the same cell line, the relative viability is 0.707 with Quizartinib + OSI-027 (first compound 0.01 µM); 0.589 with Quizartinib + OSI-027 (first compound 0.03162 µM); 0.733 in the assay with Quizartinib + OSI-027 (first compound 0.1 µM); 0.67 in the assay with YM155 + Alpelisib (first compound 0.002 µM); 0.73 in the assay with YM155 + Alpelisib (first compound 0.006325 µM); 0.703 in the assay with YM155 + Alpelisib (first compound 0.02 µM). For the same cell line, the relative viability with YM155 + Alpelisib (first compound 0.06325 µM) was 0.759.

Take NCI-H2009: the relative viability was determined as 0.546 in the assay with Quizartinib + OSI-027 (first compound 0.001 µM); 0.614 in the assay with Quizartinib + OSI-027 (first compound 0.003162 µM); 0.62 with Quizartinib + OSI-027 (first compound 0.01 µM); 0.664 with Quizartinib + OSI-027 (first compound 0.03162 µM); 0.724 with Quizartinib + OSI-027 (first compound 0.1 µM); 0.692 with Quizartinib + Tozasertib (first compound 0.001 µM). The relative viability in the assay with Quizartinib + Tozasertib (first compound 0.003162 µM) turned out to be 0.695; with Quizartinib + Tozasertib (first compound 0.01 µM), 0.628; with Quizartinib + Tozasertib (first compound 0.03162 µM), 0.653; with Quizartinib + Tozasertib (first compound 0.1 µM), 0.506; with YM155 + Alpelisib (first compound 0.002 µM), 1.2; with YM155 + Alpelisib (first compound 0.006325 µM) it was 1.14. Further, the relative viability with YM155 + Alpelisib (first compound 0.02 µM) was found to be 1.11; with YM155 + Alpelisib (first compound 0.06325 µM), 0.504.

Turning to NCI-H2023, the relative viability worked out at 0.363 with Quizartinib + OSI-027 (first compound 0.001 µM); 0.469 with Quizartinib + OSI-027 (first compound 0.003162 µM); 0.367 with Quizartinib + OSI-027 (first compound 0.01 µM); 0.355 with Quizartinib + OSI-027 (first compound 0.1 µM); 0.278 with Quizartinib + Tozasertib (first compound 0.001 µM); 0.32 in the assay with Quizartinib + Tozasertib (first compound 0.003162 µM). In addition, the relative viability amounted to 0.272 with Quizartinib + Tozasertib (first compound 0.01 µM); 0.177 with Quizartinib + Tozasertib (first compound 0.1 µM); 0.589 with YM155 + Alpelisib (first compound 0.002 µM); 0.671 with YM155 + Alpelisib (first compound 0.006325 µM); 0.594 with YM155 + Alpelisib (first compound 0.02 µM); 0.156 with YM155 + Alpelisib (first compound 0.06325 µM).

Regarding NCI-H2228, the relative viability turned out to be 0.616 with Quizartinib + OSI-027 (first compound 0.001 µM); 0.557 with Quizartinib + OSI-027 (first compound 0.003162 µM); 0.679 in the assay with Quizartinib + OSI-027 (first compound 0.01 µM); 0.431 with Quizartinib + OSI-027 (first compound 0.03162 µM); 0.539 in the assay with Quizartinib + OSI-027 (first compound 0.1 µM); 0.2 in the assay with Quizartinib + Tozasertib (first compound 0.001 µM). Further, the relative viability in the assay with Quizartinib + Tozasertib (first compound 0.003162 µM) is 0.2; with Quizartinib + Tozasertib (first compound 0.01 µM) it was 0.208; in the assay with Quizartinib + Tozasertib (first compound 0.03162 µM), 0.228; with Quizartinib + Tozasertib (first compound 0.1 µM), 0.187; with YM155 + Alpelisib (first compound 0.002 µM), 0.764; in the assay with YM155 + Alpelisib (first compound 0.006325 µM), 0.782. Besides, the relative viability with YM155 + Alpelisib (first compound 0.02 µM) was 0.645; with YM155 + Alpelisib (first compound 0.06325 µM) it was 0.657.
